In patent publication US8530489B2 (Vertex Pharmaceuticals Incorporated, priority 2006, dated 2013):
pKi: −log10 of the molar value.

What was measured:
Type in all cases: biochemical
[1] = target: PLK2 (Homo sapiens, UniProt Q9NYY3); test: PLK2 Inhibition Assay (radioactive-phosphate incorporation); conditions: selectivity ratio, PLK2 over PLK1
Protocol: (§1) The compounds of the present invention are evaluated as inhibitors of human PLK kinase using the following assays.
Compounds were screened for their ability to inhibit PLK2 using a radioactive-phosphate incorporation assay. Assays were carried out in a mixture of 25 mM HEPES (pH 7.5), 10 mM MgCl2, 0.1% BSA, and 2 mM DTT. Final substrate concentrations were 200 μM [γ-33P]ATP (57 mCi 33P ATP/mmol ATP, Amersham Pharmacia Biotech/Sigma Chemicals) and 300 μM peptide (KKKISDELMDATFADQEAK) [SEQ ID:3]. Assays were carried out at 25° C. in the presence of 25 nM PLK2. An assay stock buffer solution was prepared containing all of the reagents listed above, with the exception of ATP and the test compound of interest. 30 μL of the stock solution was placed in a 96 well plate followed by addition of 2 μL of DMSO stock containing serial dilutions of the test compound (typically starting from a final concentration of 10 μM with 2-fold serial dilutions) in duplicate (final DMSO concentration 5%). The plate was pre-incubated for 10 minutes at 25° C. and the reaction initiated by addition of 8 μL [γ-33P]ATP (final concentration 200 μM).
(§2) The reaction was stopped after 90 minutes by the addition of 100 μL 0.14 M phosphoric acid. A multiscreen phosphocellulose filter 96-well plate (Millipore, Cat No. MAPHN0B50) was pretreated with 100 μL 0.2M phosphoric acid prior to the addition of 125 μL of the stopped assay mixture. The plate was washed with 4×200 μL 0.2 M phosphoric acid. After drying, 100 μL Optiphase ‘SuperMix’ liquid scintillation cocktail (Perkin Elmer) was added to the well prior to scintillation counting (1450 Microbeta Liquid Scintillation Counter, Wallac).
(§3) After removing mean background values for all of the data points, Ki(app) data were calculated from non-linear regression analysis of the initial rate data using the Prism software package (GraphPad Prism version 3.0cx for Macintosh, GraphPad Software, San Diego Calif., USA).

[2] = target: PLK1 (Homo sapiens, UniProt P53350); test: PLK1 Inhibition Assay I (radioactive-phosphate incorporation); conditions: Ki(app); PLK1 Inhibition Assay I or II (table does not say which)
In short: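 Ki(app) values came from non-linear regression of initial rates after background subtraction, with phosphopeptide measured by phosphocellulose filter binding and scintillation counting. PLK1 at 2 nM was preincubated with compound (typically from 10 μM, 2-fold dilutions) for 10 min, then run 240 min at 25° C with 350 μM [γ-33P]ATP and 450 μM peptide substrate in HEPES pH 7.5 buffer.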

[3] = target: T1, PLK3 (S38-A340) (Homo sapiens, UniProt Q9H4B4); test: PLK3 Inhibition Assay (radioactive-phosphate incorporation); conditions: selectivity ratio, PLK3 over PLK1
T1 construct: in the presence of 5 nM PLK3 (S38-A340)
Protocol: as §1
Compounds were screened for their ability to inhibit PLK3 using a radioactive-phosphate incorporation assay. Assays were carried out in a mixture of 25 mM HEPES (pH 7.5), 10 mM MgCl2, and 1 mM DTT. Final substrate concentrations were 75 μM [γ-33P]ATP (60 mCi 33P ATP/mmol ATP, Amersham Pharmacia Biotech/Sigma Chemicals) and 10 μM peptide (SAM68 protein Δ332-443). Assays were carried out at 25° C. in the presence of 5 nM PLK3 (S38-A340). An assay stock buffer solution was prepared containing all of the reagents listed above, with the exception of ATP and the test compound of interest. 30 μL of the stock solution was placed in a 96 well plate followed by addition of 2 μL of DMSO stock containing serial dilutions of the test compound (typically starting from a final concentration of 10 μM with 2-fold serial dilutions) in duplicate (final DMSO concentration 5%). The plate was pre-incubated for 10 minutes at 25° C. and the reaction initiated by addition of 8 μL [γ-33P]ATP (final concentration 75 μM).
as §2, with “60” for “90”, “0.14M” for “0.14 M”
as §3

T1 sequence (Q9H4B4 58-340 limits assumed): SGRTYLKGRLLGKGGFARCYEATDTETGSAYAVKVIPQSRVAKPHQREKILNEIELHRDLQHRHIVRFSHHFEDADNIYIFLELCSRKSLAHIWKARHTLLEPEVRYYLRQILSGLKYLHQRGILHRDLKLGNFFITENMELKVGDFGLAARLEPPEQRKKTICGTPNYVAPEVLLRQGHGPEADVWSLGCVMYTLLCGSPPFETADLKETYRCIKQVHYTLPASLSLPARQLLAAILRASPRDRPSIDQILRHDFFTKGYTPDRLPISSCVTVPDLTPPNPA
PLK1, sequence (P53350 whole entry): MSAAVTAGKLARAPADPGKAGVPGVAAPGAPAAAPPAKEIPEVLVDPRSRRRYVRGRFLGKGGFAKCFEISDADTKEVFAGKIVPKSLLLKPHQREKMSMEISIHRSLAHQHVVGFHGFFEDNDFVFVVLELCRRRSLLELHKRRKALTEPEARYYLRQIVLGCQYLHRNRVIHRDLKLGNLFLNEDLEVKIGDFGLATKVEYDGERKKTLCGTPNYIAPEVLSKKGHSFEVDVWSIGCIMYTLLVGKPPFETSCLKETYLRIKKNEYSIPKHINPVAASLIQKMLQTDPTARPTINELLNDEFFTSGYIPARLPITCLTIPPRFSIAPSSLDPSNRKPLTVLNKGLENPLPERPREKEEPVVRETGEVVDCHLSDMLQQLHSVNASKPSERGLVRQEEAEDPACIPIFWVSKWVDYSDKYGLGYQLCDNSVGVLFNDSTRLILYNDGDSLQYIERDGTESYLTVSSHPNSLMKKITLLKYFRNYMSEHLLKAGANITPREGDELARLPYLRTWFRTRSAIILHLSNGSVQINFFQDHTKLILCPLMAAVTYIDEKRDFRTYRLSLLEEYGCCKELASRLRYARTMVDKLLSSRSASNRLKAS
PLK2, sequence (Q9NYY3 whole entry): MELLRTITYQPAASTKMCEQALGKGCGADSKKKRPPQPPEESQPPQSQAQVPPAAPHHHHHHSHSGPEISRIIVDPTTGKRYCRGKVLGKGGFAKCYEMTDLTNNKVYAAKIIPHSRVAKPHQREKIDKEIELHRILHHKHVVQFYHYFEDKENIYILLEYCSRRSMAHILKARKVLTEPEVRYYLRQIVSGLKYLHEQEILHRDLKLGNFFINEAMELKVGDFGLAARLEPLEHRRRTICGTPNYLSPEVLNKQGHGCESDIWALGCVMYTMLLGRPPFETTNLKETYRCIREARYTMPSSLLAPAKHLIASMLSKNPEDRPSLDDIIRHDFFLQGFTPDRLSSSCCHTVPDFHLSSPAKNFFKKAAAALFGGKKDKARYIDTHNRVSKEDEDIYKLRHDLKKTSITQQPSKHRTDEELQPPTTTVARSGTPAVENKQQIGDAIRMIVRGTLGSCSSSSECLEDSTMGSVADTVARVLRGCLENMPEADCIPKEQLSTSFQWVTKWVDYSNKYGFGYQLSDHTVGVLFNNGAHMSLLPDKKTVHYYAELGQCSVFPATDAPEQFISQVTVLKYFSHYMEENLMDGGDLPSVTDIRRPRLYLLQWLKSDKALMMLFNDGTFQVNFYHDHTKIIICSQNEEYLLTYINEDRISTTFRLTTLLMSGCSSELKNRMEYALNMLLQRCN

SMILES	Ki(PLK2)/Ki(PLK1) [1]	pKi [2]	Ki(PLK3)/Ki(PLK1) [3]
CC(Nc1ncc(C#N)c(-c2c[nH]c3ncc(C(F)(F)F)cc23)n1)c1ccc(N[C@H]2CCNC2)nc1 (stereo partly drawn) [Compound I-277, 2-(1-(6-((S)-pyrrolidin-3-ylamino)pyridin-3-yl)ethylamino)-4-(5-(trifluoromethyl)-1H-pyrrolo[2,3-b]pyridin-3-yl)pyrimidine-5-carbonitrile]	–	> 8.52	39
CNCCN(C)c1ccc([C@@H](C)Nc2ncc(C#N)c(-c3c[nH]c4ncc(C(F)(F)F)cc34)n2)cn1 [Compound I-275, 2-((R)-1-(6-(methyl(2-(methylamino)ethyl)amino)pyridin-3-yl)ethylamino)-4-(5-(trifluoromethyl)-1H-pyrrolo[2,3-b]pyridin-3-yl)pyrimidine-5-carbonitrile]	313	> 8.52	919
C[C@@H]1CN(c2ccc([C@@H](C)Nc3ncc(C#N)c(-c4c[nH]c5ncc(C(F)(F)F)cc45)n3)cn2)C[C@H](C)N1 [Compound I-276, 2-((R)-1-(6-((3S,5R)-3,5-dimethylpiperazin-1-yl)pyridin-3-yl)ethylamino)-4-(5-(trifluoromethyl)-1H-pyrrolo[2,3-b]pyridin-3-yl)pyrimidine-5-carbonitrile]	2952	> 8.52	–
C[C@@H](Nc1ncc(C#N)c(-c2c[nH]c3ncc(C(F)(F)F)cc23)n1)c1ccc(N2CCN(C)CC2)cc1 [Compound I-127, 2-((R)-1-(4-(4-methylpiperazin-1-yl)phenyl)ethylamino)-4-(5-(trifluoromethyl)-1H-pyrrolo[2,3-b]pyridin-3-yl)pyrimidine-5-carbonitrile]	210	> 8.52	140
C[C@H](Nc1ncc(C#N)c(-c2c[nH]c3ncc(Cl)cc23)n1)C(=O)NCC(F)(F)F [IA-6, (2S)-2-(4-(5-chloro-1H-pyrrolo{2,3-b]pyridin-3-yl)-5-cyanopyrimidin-2-ylamino)-N-(2,2,2-trifluoroethyl)propanamide]	–	< 7.40	–
CC(Nc1ncc(C#N)c(-c2c[nH]c3ncc(C(F)(F)F)cc23)n1)c1ccc(O)c(Cl)c1 (stereo not drawn) [Compound I-122, 2-(1-(3-chloro-4-hydroxyphenyl)ethylamino)-4-(5-(trifluoromethyl)-1H-pyrrolo[2,3-b]pyridin-3-yl)pyrimidine-5-carbonitrile]	–	> 8.52	–
COc1ccc([C@@H](C)Nc2ncc(C#N)c(-c3c[nH]c4ncc(C(F)(F)F)cc34)n2)cc1 [Compound I-26, 2-((R)-1-(4-methoxyphenyl)ethylamino)-4-(5-(trifluoromethyl)-1H-pyrrolo[2,3-b]pyridin-3-yl)pyrimidine-5-carbonitrile]	–	> 8.52	–
N#Cc1cnc(NC[C@H](O)CO)nc1-c1c[nH]c2ncc(C(F)(F)F)cc12 [Compound I-114, 2-((S)-2,3-dihydroxypropylamino)-4-(5-(trifluoromethyl)-1H-pyrrolo[2,3-b]pyridin-3-yl)pyrimidine-5-carbonitrile]	–	7.40 to 8.52	–
N#Cc1cnc(NCc2ccc(-n3cncn3)cc2)nc1-c1c[nH]c2ncc(C(F)(F)F)cc12 [Compound I-55, 2-(4-(1H-1,2,4-triazol-1-yl)benzylamino)-4-(5-(trifluoromethyl)-1H-pyrrolo[2,3-b]pyridin-3-yl)pyrimidine-5-carbonitrile]	–	7.40 to 8.52	–
N#Cc1cnc(NC[C@H]2CCCN2)nc1-c1c[nH]c2ncc(C(F)(F)F)cc12 [Compound I-88, 2-((R)-pyrrolidin-2-ylmethylamino)-4-(5-(trifluoromethyl)-1H-pyrrolo[2,3-b]pyridin-3-yl)pyrimidine-5-carbonitrile]	–	< 7.40	–
N#Cc1cnc(Sc2ccccc2Cl)nc1-c1c[nH]c2ncc(C(F)(F)F)cc12 [II-5, 2-(2-chlorophenylthio)-4-(5-(trifluoromethyl)-1H-pyrrolo[2,3-b]pyridin-3-yl)pyrimidine-5-carbonitrile]	–	< 7.40	–

Second part, the compound after the results:

Ki(PLK2)/Ki(PLK1) [1]	pKi [2]	Ki(PLK3)/Ki(PLK1) [3]	SMILES
323	> 8.52	185	CC(Nc1ncc(C#N)c(-c2c[nH]c3ncc(C(F)(F)F)cc23)n1)c1ccc(N2CCNCC2)cc1 (stereo not drawn) [Compound I-124, 2-(1-(4-(piperazin-1-yl)phenyl)ethylamino)-4-(5-(trifluoromethyl)-1H-pyrrolo[2,3-b]pyridin-3-yl)pyrimidine-5-carbonitrile]
4074	> 8.52	–	C[C@@H]1CN(c2ccc([C@@H](C)Nc3ncc(C#N)c(-c4c[nH]c5ncc(C(F)(F)F)cc45)n3)cn2)CCN1 [Compound I-274, 2-((R)-1-(6-((R)-3-methylpiperazin-1-yl)pyridin-3-yl)ethylamino)-4-(5-(trifluoromethyl)-1H-pyrrolo[2,3-b]pyridin-3-yl)pyrimidine-5-carbonitrile]
523	> 8.52	186	C[C@@H](Nc1ncc(C#N)c(-c2c[nH]c3ncc(C(F)(F)F)cc23)n1)c1ccc(N2CCN(C)CC2)nc1 (single isomer, unassigned) [Compound I-147]
1152	> 8.52	–	C[C@@H](Nc1ncc(C#N)c(-c2c[nH]c3ncc(C(F)(F)F)cc23)n1)c1ccc(N2CCNCC2)nc1 [Compound I-267, 2-((R)-1-(6-(piperazin-1-yl)pyridin-3-yl)ethylamino)-4-(5-(trifluoromethyl)-1H-pyrrolo[2,3-b]pyridin-3-yl)pyrimidine-5-carbonitrile]
211	> 8.52	126	CC(Nc1ncc(C#N)c(-c2c[nH]c3ncc(C(F)(F)F)cc23)n1)c1ccc(N2CCCN(C)CC2)cc1 (stereo not drawn) [Compound I-126, 2-(1-(4-(4-methyl-1,4-diazepan-1-yl)phenyl)ethylamino)-4-(5-(trifluoromethyl)-1H-pyrrolo[2,3-b]pyridin-3-yl)pyrimidine-5-carbonitrile]
113	> 8.52	28	CC(Nc1ncc(C#N)c(-c2c[nH]c3ncc(C(F)(F)F)cc23)n1)c1ccc(N2CCN(C)CC2)cc1 (stereo not drawn) [Compound I-102, 2-(1-(4-(4-methylpiperazin-1-yl)phenyl)ethylamino)-4-(5-(trifluoromethyl)-1H-pyrrolo[2,3-b]pyridin-3-yl)pyrimidine-5-carbonitrile]
293	> 8.52	141	C[C@@H](Nc1ncc(C#N)c(-c2c[nH]c3ncc(C(F)(F)F)cc23)n1)c1cnc(N[C@H]2CCN(C)C2)nc1 [Compound I-268, 2-((R)-1-(2-((S)-1-methylpyrrolidin-3-ylamino)pyrimidin-5-yl)ethylamino)-4-(5-(trifluoromethyl)-1H-pyrrolo[2,3-b]pyridin-3-yl)pyrimidine-5-carbonitrile]
1000	> 8.52	456	CC(Nc1ncc(C#N)c(-c2c[nH]c3ncc(C(F)(F)F)cc23)n1)c1ccc(N2CCN(C)CC2)nc1 (stereo not drawn) [Compound I-139, 2-(1-(6-(4-methylpiperazin-1-yl)pyridin-3-yl)ethylamino)-4-(5-(trifluoromethyl)-1H-pyrrolo[2,3-b]pyridin-3-yl)pyrimidine-5-carbonitrile]
